In US11746098B2, “Proteasome activity enhancing compounds” (Proteostasis Therapeutics, Inc., priority 2018, dated 2023) one finds IC50 data, which are given here for 16 compounds.

The structures appear in SMILES notation.

In the test the target is USP14 (Homo sapiens, UniProt P54578). Kind of test: USP14 Inhibition Assay. Format: biochemical. As to conditions: average value from a minimum of two experimental determinations, read-out: IC50 Category. The source says:
The activity of the compound described herein to inhibit USP14 can be measured using previously described methodology [B. H. Lee et al. Nature 2010, 467 (9), 179, the contents of which are expressly incorporated by reference herein].
Example 6: USP14 Inhibition Assay

A word on the IC50: it is the point on the concentration scale where inhibition reaches its midpoint. Regarding `Cc1cc(C(=O)CN2CCC(OCC(=O)NC(C)(C)C)CC2)c(C)n1-c1ccc(Cl)cc1` [Compound 84, N-(tert-Butyl)-2-((1-(2-(1-(4-chlorophenyl)-2,5-dimethyl-1H-pyrrol-3-yl)-2-oxoethyl)piperidin-4-yl)oxy)acetamide], the IC50 was under 500 nM.

For the compound `Cc1cc(C(=O)CN2CCCC2)c(C)n1-c1ccc(C#N)cc1` [Compound 85, 4-(2,5-Dimethyl-3-(2-(pyrrolidin-1-yl)acetyl)-1H-pyrrol-1-yl)benzonitrile], the IC50 is under 500 nM. Regarding `Cc1c(C(=O)CN2CCCCC2)cc(C2CC2)n1-c1ccc(Cl)cc1` [Compound 90, 1-(1-(4-Chloropheny1)-5-cyclopropyl-2-methyl-1H-pyrrol-3-yl)-2-(piperidin-1-yl)ethanone], the concentration for half-maximal inhibition (IC50) was under 500 nM. Under `Cc1c(C(=O)CN2CCCCC2)ccn1-c1ccc(Cl)cc1` [Compound 91, 1-(1-(4-Chlorophenyl)-2-methyl-1H-pyrrol-3-yl)-2-(piperidin-1-yl)ethanone] stands under 500 nM; under `Cc1cc(C(=O)CN2CCCC2)n(C)c1-c1ccc(Cl)cc1` [Compound 92, 1-(5-(4-Chlorophenyl)-1,4-dimethyl-1H-pyrrol-2-yl)-2-(pyrrolidin-1-yl)ethanone], under 500 nM; under `Cc1c(C(=O)CN2CCCCC2)cn(C)c1-c1ccc(Cl)cc1` [Compound 93, 1-(5-(4-Chlorophenyl)-1,4-dimethyl-1H-pyrrol-3-yl)-2-(piperidin-1-yl)ethanone], under 500 nM. Consider `Cc1c(C(=O)CN2CCC(O)CC2)cn(C)c1-c1ccc(Cl)cc1` [Compound 94, 1-(5-(4-Chlorophenyl)-1,4-dimethyl-1H-pyrrol-3-yl)-2-(4-hydroxypiperidin-1-yl)ethanone], for which the IC50 is under 500 nM. Under `Cc1cc(C(=O)CN2CCC(O)CC2)n(C)c1-c1ccc(Cl)cc1` [Compound 95, 1-(5-(4-Chlorophenyl)-1,4-dimethyl-1H-pyrrol-2-yl)-2-(4-hydroxypiperidin-1-yl)ethanone] stands under 500 nM. As to `Cc1cc(C(=O)CN2CCCCC2)n(C)c1-c1ccc(Cl)cc1` [Compound 96, 1-(5-(4-Chlorophenyl)-1,4-dimethyl-1H-pyrrol-2-yl)-2-(piperidin-1-yl)ethanone], the IC50 was under 500 nM. Under `Cc1cc(C(=O)CN2CCCCC2)c(C)n1C1CCC(Cl)(Cl)CC1` [Compound 97, 1-(1-(4,4-Dichlorocyclohexyl)-2,5-dimethyl-1H-pyrrol-3-yl)-2-(piperidin-1-yl)ethanone] stands under 500 nM; under `Cc1cc(C(=O)C[n+]2ccccc2)c(C)n1-c1ccc(Cl)cc1` [Compound 99, 1-(2-(1-(4-Chlorophenyl)-2,5-dimethyl-1H-pyrrol-3-yl)-2-oxoethyl)pyridin-1-ium Chloride], under 500 nM.

On to `Cc1cc(C=O)c(C)n1-c1ccc(Cl)cc1` [Compound 100, 1-(4-Chlorophenyl)-2,5-dimethyl-1H-pyrrole-3-carbaldehyde], for which the IC50 was over 5000 nM. Under `Cc1cc(C(=O)CNCCO)c(C)n1-c1ccc(Cl)cc1` [Compound 101, 1-(1-(4-Chlorophenyl)-2,5-dimethyl-1H-pyrrol-3-yl)-2-((2-hydroxyethyl)amino)ethan-one] stands over 5000 nM. With `Cc1cc(C(=O)CNCC2COC(C)(C)O2)c(C)n1-c1ccc(C#N)cc1` (stereo not shown) [Compound 102, 4-(3-(2-(((2,2-Dimethyl-1,3-dioxolan-4-yl)methyl)amino)acetyl)-2,5-dimethyl-1H-pyrrol-1-yl)benzonitrile], the IC50 is over 5000 nM. Under `Cc1cc(C(=O)CN2CCCCC2)c(C)n1[C@H]1CC[C@@H](C(N)=O)CC1` [Compound 103, cis-4-(2,5-Dimethyl-3-(2-(piperidin-1-yl)acetyl)-1H-pyrrol-1-yl)cyclohexanecarboxamide] stands over 5000 nM; under `Cc1cc(C(=O)CN2CCCCC2)c(C)n1[C@H]1CC[C@@H](C#N)CC1` [Compound 105, cis-(2,5-Dimethyl-3-(2-(piperidin-1-yl)acetyl)-1H-pyrrol-1-yl)cyclohexanecarbonitrile], over 5000 nM.
